Patent publication US11773071B2, “Benzothiazepine compounds and their use as bile acid modulators” (Albireo AB, priority 2019, dated 2023)

How the values were obtained:
Human IBAT = target: T1, Human IBAT (Homo sapiens, UniProt Q12908); assay: IBAT (h/m) assay, human IBAT-overexpressing cells, 3H-taurocholic acid uptake; format: cell-based; details: 0.25 μM 3H-taurocholic acid and 5 μM cold taurocholic acid, 20 minutes, read-out: hIBAT IC50
T1 construct: expressed in transfected cells; Puromycin-selected
T1 sequence (Q12908 1-348): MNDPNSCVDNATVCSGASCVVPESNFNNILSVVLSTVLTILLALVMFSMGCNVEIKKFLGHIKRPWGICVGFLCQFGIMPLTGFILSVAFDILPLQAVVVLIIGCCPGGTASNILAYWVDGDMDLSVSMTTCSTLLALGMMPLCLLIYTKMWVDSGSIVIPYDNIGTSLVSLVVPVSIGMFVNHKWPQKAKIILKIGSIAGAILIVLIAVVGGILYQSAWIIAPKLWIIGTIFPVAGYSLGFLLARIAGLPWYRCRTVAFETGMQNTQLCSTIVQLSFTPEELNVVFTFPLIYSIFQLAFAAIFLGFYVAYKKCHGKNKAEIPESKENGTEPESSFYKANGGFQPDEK
Experimental: IBAT (h/m) Assay Protocol
10,000 cells (Human or Mouse IBAT-overexpressing cells) were seeded in 96-wells plate (Corning CLS3809) in 200 μL MEM-alpha medium (Gibco 12571-063) supplemented with 10% FBS (Gibco 10438026) containing Puromycin (Gibco A1113803) (10 μg/mL) and incubated at 37° C. in 5% CO2 for 48 hours. After incubation, media was decanted from the wells and cells were washed two times with 300 μL of basal MEM-alpha medium (FBS-free). After decanting basal MEM-alpha medium each time, plates were tapped against paper towel to ensure maximum removal of residual media. Test inhibitor dilutions (highest test concentration being 10 μM, 3-fold serial dilution, 10 points) prepared in DMSO (Sigma D2650) were added in incubation mix (maintaining 0.2% final DMSO concentration) containing 0.25 μM 3H-taurocholic acid (ARC ART-1368) and 5 μM of cold taurocholic acid (Sigma T4009). 50 μL of incubation mix containing test inhibitors was then added to the wells (in duplicate) and the plates were incubated for 20 minutes in a CO2 incubator at 37° C. After incubation, the reaction was stopped by keeping the plates on ice water mix for 2-3 minutes and then the incubation mix was aspirated completely from the wells. The wells were washed two times with 250 μL of chilled unlabelled 1 mM taurocholic acid dissolved in HEPES (Gibco 15630080)-buffered (10 mM) HBSS (Gibco 14175079) (pH 7.4). The plates were tapped against a paper towel after every wash to ensure maximum removal of blocking buffer.
100 μL of MicroScint-20 (PerkinElmer 6013621) was added to the wells and kept overnight at room temperature before reading the plates in TopCount NXT™ Microplate Scintillation and Luminescence Counter from PerkinElmer under 3H Test protocol (set at 120 seconds reading time per well).
(§1) Preparation of Test Compound Dilutions
(§2) All test compounds were provided in powder form at room temperature. 10 mM DMSO stocks of the test compounds were prepared, aliquoted and stored at −20° C. From the 10 mM DMSO stock of the compounds, a 3-fold serial dilution in DMSO was prepared to get a total of 10 dilutions of the test compounds. 0.5 μL of this dilution in DMSO was added to 250 μL of FBS-free basal media containing 3H-taurocholic acid and cold taurocholic acid to prepare the incubation mixture.

Human LBAT = target: T2, Human LBAT (Homo sapiens, UniProt Q14973); assay: LBAT (h/m) assay, human LBAT-overexpressing cells, 3H-taurocholic acid uptake; format: cell-based; details: 0.3 μM 3H-taurocholic acid and 7.5 μM cold taurocholic acid, 20 minutes, read-out: hLBAT IC50
T2 construct: expressed in transfected cells; Geneticin-selected
T2 sequence (Q14973 1-349): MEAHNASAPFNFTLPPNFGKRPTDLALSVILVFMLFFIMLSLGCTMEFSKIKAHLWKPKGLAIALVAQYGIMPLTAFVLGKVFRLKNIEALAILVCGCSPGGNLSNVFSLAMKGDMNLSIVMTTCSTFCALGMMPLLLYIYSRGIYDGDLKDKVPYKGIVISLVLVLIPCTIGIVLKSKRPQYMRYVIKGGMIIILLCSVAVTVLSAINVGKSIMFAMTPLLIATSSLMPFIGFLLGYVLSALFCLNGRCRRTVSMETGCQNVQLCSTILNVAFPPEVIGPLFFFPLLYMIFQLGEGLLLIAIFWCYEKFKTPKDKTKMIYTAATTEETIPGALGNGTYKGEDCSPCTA
Experimental: LBAT (h/m) Assay Protocol
20,000 cells (Human or Mouse LBAT-overexpressing cells) were seeded in 96-wells plate (Corning CLS3809) in 100 μL MEM-alpha medium (Gibco 12571-063) supplemented with 10% FBS (Gibco 10438026) containing Geneticin (Gibco 10131-027) (1 mg/mL) and incubated at 37° C. in 5% CO2 for 24 hours. After incubation, media was decanted from the wells and cells were washed two times with 300 μL of basal MEM-alpha medium (FBS-free). After decanting basal MEM-alpha medium each time, plates were tapped against paper towel to ensure maximum removal of residual media.
For human LBAT, incubation mix was prepared by adding test inhibitor dilutions (3-fold serial dilution in DMSO (Sigma D2650), 10 points) in MEM-alpha (without FBS) containing 0.3 μM 3H-taurocholic acid (ARC ART-1368) and 7.5 μM cold taurocholic acid (Sigma T4009) (maintaining 0.2% final DMSO concentration). For mouse LBAT, incubation mix was prepared by adding test inhibitor dilutions (3-fold serial dilution in DMSO, 10 points) in MEM-alpha (without FBS) containing 0.3 μM 3H-taurocholic acid and 25 μM cold taurocholic acid maintaining 0.2% final DMSO concentration). 50 μL of incubation mix containing test inhibitors was then added to the wells (in duplicate) and the plates were incubated for 20 minutes in a CO2 incubator at 37° C. After incubation, the reaction was stopped by keeping the plates on ice water mix for 2-3 minutes and then the incubation mix was aspirated completely from the wells. The wells were washed two times with 250 μL of chilled unlabelled 1 mM taurocholic acid dissolved in HEPES (Gibco 15630080)-buffered (10 mM) HBSS (Gibco 14175079) (pH 7.4). The plates were tapped against a paper towel after every wash to ensure maximum removal of blocking buffer. 100 μL of MicroScint-20 (PerkinElmer 6013621) was added to the wells and kept overnight at room temperature before reading the plates in TopCount NXT™ Microplate Scintillation and Luminescence Counter from PerkinElmer under 3H Test protocol (set at 120 seconds reading time per well, with normal plate orientation).
as §1, §2

Structure (SMILES) | IC50 (Human IBAT) | IC50 (Human LBAT)
CCCCC1(C)CN(c2ccccc2)c2cc(SC)c(OCCC(=O)O)cc2S(=O)(=O)C1 (single isomer, unassigned) [Example 23, 3-((3-butyl-3-methyl-7-(methylthio)-1,1-dioxido-5-phenyl-2,3,4,5-tetrahydro-1,5-benzothiazepin-8-yl)oxy)propanoic acid] | 334 nM | 182 nM
CCCCC1(CC)CN(c2ccccc2)c2cc(SC)c(OCC(O)C(=O)O)cc2S(=O)(=O)C1 (single isomer, unassigned) [40, diastereomer 4] | 10 nM | 389 nM
CCCCC1(CCCC)CN(c2ccc(F)cc2)c2cc(SC)c(OCCC(=O)O)cc2S(=O)(=O)C1 [Example 26, 3-((3,3-dibutyl-5-(4-fluorophenyl)-7-(methylthio)-1,1-dioxido-2,3,4,5-tetrahydro-1,5-benzothiazepin-8-yl)oxy)propanoic acid] | 10 nM | 1540 nM
CCCCC1(CC)CN(c2ccccc2)c2cc(Cl)c(OCCC(=O)O)cc2S(=O)(=O)C1 (single isomer, unassigned) [Example 7, 3-((3-butyl-7-chloro-3-ethyl-1,1-dioxido-5-phenyl-2,3,4,5-tetrahydro-1,5-benzothiazepin-8-yl)oxy)propanoic acid] | 418 nM | 969 nM
CCCCC1(CCCC)CN(c2ccc(F)c(F)c2)c2cc(SC)c(OCCC(=O)O)cc2S(=O)(=O)C1 [Example 25, 3-((3,3-dibutyl-5-(3,4-difluorophenyl)-7-(methylthio)-1,1-dioxido-2,3,4,5-tetrahydro-1,5-benzothiazepin-8-yl)oxy)propanoic acid] | 18 nM | 922 nM
CCCCC1(CC)CN(c2ccc(F)cc2)c2cc(SC)c(OCC(O)C(=O)O)cc2S(=O)(=O)C1 (single isomer, unassigned) [42, diastereomer 1] | 19 nM | 1290 nM
CCCCC1(CC)CN(c2ccccc2)c2cc(OC)c(OCCC(=O)O)cc2S(=O)(=O)C1 (single isomer, unassigned) [44, enantiomer 2] | 392 nM | > 23000 nM
CCCCC1(CCCC)CN(c2ccccc2)c2cc(SC)c(OCC(OC)C(=O)O)cc2S(=O)(=O)C1 (racemic) [Example 46, 3-((3,3-Dibutyl-7-(methylthio)-1,1-dioxido-5-phenyl-2,3,4,5-tetrahydro-1,5-benzothiazepin-8-yl)oxy)-2-methoxypropanoic acid] | 26 nM | 1480 nM
CCCCC1(CC)CN(c2ccc(F)cc2)c2cc(SC)c(OCC(O)C(=O)O)cc2S(=O)(=O)C1 (stereo not shown) [Example 41, 3-((3-Butyl-3-ethyl-5-(4-fluorophenyl)-7-(methylthio)-1,1-dioxido-2,3,4,5-tetrahydro-1,5-benzothiazepin-8-yl)oxy)-2-hydroxypropanoic acid] | 3 nM | 495 nM
CCCCC1(CC)CN(c2ccccc2)c2cc(SC)c(OCC(O)C(=O)O)cc2S(=O)(=O)C1 (stereo not shown) [Example 39, 3-((3-butyl-3-ethyl-7-(methylthio)-1,1-dioxido-5-phenyl-2,3,4,5-tetrahydro-1,5-benzothiazepin-8-yl)oxy)-2-hydroxypropanoic acid] | 4 nM | 613 nM
CCCCC1(CC)CN(c2ccccc2)c2cc(SC)c(OCCC(=O)O)cc2S(=O)(=O)C1 (single isomer, unassigned) [Example 14, 3-((3-butyl-3-ethyl-7-(methylthio)-1,1-dioxido-5-phenyl-2,3,4,5-tetrahydro-1,5-benzothiazepin-8-yl)oxy)propanoic acid] | 58 nM | 764 nM
CCCCC1(CC)CN(c2ccccc2)c2cc(SC)c(OCC(O)C(=O)O)cc2S(=O)(=O)C1 (single isomer, unassigned) [40, diastereomer 3] | 2 nM | 665 nM
CCCCC1(C)CN(c2ccccc2)c2cc(SC)c(OCC(O)C(=O)O)cc2S(=O)(=O)C1 (single isomer, unassigned) [32, diastereomer 2] | 35 nM | 4080 nM
CCCCC1(CC)CN(c2ccccc2)c2cc(SC)c(OCC(C)(F)C(=O)O)cc2S(=O)(=O)C1 (single isomer, unassigned) [35, diastereomer 2] | 13 nM | 138 nM
CCCCC1(CCCC)CN(c2ccccc2)c2cc(Cl)c(OCCC(=O)O)cc2S(=O)(=O)C1 [Example 8, 3-((3,3-Dibutyl-7-chloro-1,1-dioxido-5-phenyl-2,3,4,5-tetrahydro-1,5-benzothiazepin-8-yl)oxy)propanoic acid] | 74 nM | 376 nM
CCCCC1(CC)CN(c2ccccc2)c2cc(OC)c(OCCC(=O)O)cc2S(=O)(=O)C1 (single isomer, unassigned) [44, enantiomer 1] | 46 nM | > 20000 nM
CCCCC1(CC)CN(c2ccc(F)cc2)c2cc(SC)c(OCCC(=O)O)cc2S(=O)(=O)C1 (racemic) [Example 37, 3-((3-butyl-3-ethyl-5-(4-fluorophenyl)-7-(methylthio)-1,1-dioxido-2,3,4,5-tetrahydro-1,5-benzothiazepin-8-yl)oxy)propanoic acid] | 3 nM | 297 nM
CCCCC1(C)CN(c2ccccc2)c2cc(N(C)C)c(OCCC(=O)O)cc2S(=O)(=O)C1 (single isomer, unassigned) [29, enantiomer 2] | 57 nM | 3310 nM
CCCCC1(CC)CN(c2ccccc2)c2cc(OC)c(OCCC(=O)O)cc2S(=O)(=O)C1 (racemic) [Example 43, 3-((3-butyl-3-ethyl-7-methoxy-1,1-dioxido-5-phenyl-2,3,4,5-tetrahydro-1,5-benzothiazepin-8-yl)oxy)propanoic acid] | 44 nM | > 20000 nM
CCCCC1(C)CN(c2ccccc2)c2cc(SC)c(OCCC(=O)O)cc2S(=O)(=O)C1 (racemic) [Example 22, 3-((3-butyl-3-methyl-7-(methylthio)-1,1-dioxido-5-phenyl-2,3,4,5-tetrahydro-1,5-benzothiazepin-8-yl)oxy)propanoic acid] | 10 nM | 543 nM
